Data as given in patent US6869941B2, “Combination of drospirenone and an estrogen sulphamate for HRT” (Schering AG, priority 2001, dated 2005).

Assays:
Type in all cases: physicochemical
[1] = Solubility of drospirenone in water and aqueous buffers; settings: water and aqueous buffers at various pH values
[2] = Chemical stability of drospirenone under acid and alkaline conditions
[3] = In vitro dissolution, USP XXIII Paddle Method; settings: micronized form; rapid dissolution defined as at least 70% over about 30 minutes from a 3 mg tablet in 900 ml of water at 37° C., apparatus 2 at 50 rpm

With `C[C@]12CCC(=O)C=C1[C@@H]1C[C@@H]1[C@H]1[C@@H]3[C@@H]4C[C@@H]4[C@@]4(CCC(=O)O4)[C@@]3(C)CC[C@@H]12` [Drospirenone] the solubility [1] was “sparingly soluble”, the “stability under acid conditions” value ([2]; acid conditions) was “rearranged to an inactive isomer” and the “stability under alkaline conditions” value ([2]; alkaline conditions) was “hydrolysed”. The “dissolution of the active compound from the dosage unit in vitro” value [3] was “rapid dissolution”.
